The source of these data is patent publication US20080274987A1, “Novel alpha glucosidase activator, pulicarside 1” (HEJ Research Institute, priority 2006, published 2008).

Like-named read-outs stand apart in the source and are kept apart here.

The target of experiment [1] is α-glucosidase (E.C.3.2.1.20). Nature of the experiment: α-Glucosidase enzyme inhibition assay (PNP-G substrate, spectrophotometric). In kind it is biochemical, Saccharomyces species. The protocol:
(§1) α-Glucosidase (E.C.3.2.1.20) enzyme inhibition assay was performed according to the slightly modified method of Matsui et al. α-glucosidase (E.C.3.2.1.20) from Saccharomyces species, purchased from Wako Pure Chemical Industries Ltd. (Wako 076-02841). The enzyme inhibition was measured spectrophotometrically at pH 6.9 and at 37° C. using 0.7 mM p nitrophenyl-α-D-glucopyranoside (PNP-G) as a substrate and 500 m units/mL enzyme, in 50 mM sodium phosphate buffer containing 100 mM NaCl. […] The increment in absorption at 400 nm, due to the hydrolysis of PNP-G by α-glucosidase, was monitored continuously on microplate spectrophotometer (Spectra Max Molecular Devices, USA).
[T. Matsui, C. Yoshimoto, K. Osajima, T. Oki, and Y. Osajima. Biosci. Biotech. Biochem., 1996, 60, 2019].

The next experiment has as its system α-glucosidase. The experiment in a line: Rate of α-glucosidase enzyme reaction as a function of incubation time and concentration of Compound 1. In kind it is biochemical, Saccharomyces species. As for the experimental part: as §1
Several unique observations were made during the studies conducted on Compound 1 activity. For example, it was observed that the enzyme generally looses its activity during the operational period. We have a set of experiment to see how the enzyme lost its activity with almost all activity gone within one hour. (Table 2).
As a result we conclude that the activity of Compound 1 is concentration dependent. The mechanism postulated here includes enhancement of stability of the enzyme to react with the substrate, which is not observed in negative control in the absence of this compound 1. From the structures it is clearly evidenced that the methylene-dioxy ring and as well as the sugar molecule is responsible for the enzyme activation. […] So the COO— group is playing a crucial role for the inhibitory effect on the enzyme and the gugar molecule and methylene-dioxy ring is responsible for the activation of the enzyme.

Setting [2] is: against α-glucosidase, pH 6.9, 37° C., 0.7 mM PNP-G, read-out: IC50 ± SEM.
Setting [3] is: unit inferred, read-out: IC50 (inhibitory effect on the enzyme).

Regarding `C[C@@]12CCC[C@@](C)(C(=O)O)[C@H]1CC[C@@]13C[C@@H](CC[C@H]12)[C@@](O)(CO)C3` (single isomer, unassigned; ent-16) [ent-16,17-dihydroxy-(−)-kauran-19-oic acid], the concentration for half-maximal inhibition (IC50) (commonly the concentration that gives 50% inhibition) in experiment [1] (setting [2]) worked out at 62.2 µM; in experiment [1] (setting [3]), 62.2 ± 0.008 µM.
With `C[C@@]12CCC[C@@](C)(C(=O)O[C@@H]3O[C@H](CO)[C@@H](O)[C@H](O)[C@H]3O)[C@H]1CC[C@@]13C[C@@H](CC[C@H]12)[C@@](O)(CO)C3` [Paniculoside IV (2), paniculoside IV], the IC50 in experiment [1] (setting [2]) and in experiment [1] (setting [3]) was 407 ± 20 µM throughout.
In the case of `CC1(C)OCC2(C[C@@]34CC[C@H]5[C@@](C)(CCC[C@@]5(C)C(=O)O[C@@H]5O[C@H](CO)[C@@H](O)[C@H](O)[C@H]5O)[C@@H]3CC[C@@H]2C4)O1` (single isomer, unassigned; ent-16) [Pulicarside (1), β-D-glucopyranosyl ent-16,17-acetonyl-(−)-kauran-19-oate], the “Rate of enzyme reaction (μM of alpha-glucose from the p-nitrophenyl at 400 nm)” value in the experiment with α-glucosidase (0.05 mM Compound 1, incubation 4 min) came out at 18.61 µM; in the experiment on α-glucosidase (0.05 mM Compound 1, incubation 24 min), 8.7 µM; in the experiment with α-glucosidase (0.05 mM Compound 1, incubation 45 min), 3.85 µM; in the experiment on α-glucosidase (0.05 mM Compound 1, incubation 66 min), 1.45 µM; with α-glucosidase (0.10 mM Compound 1, incubation 4 min), 19.94 µM; with α-glucosidase (0.10 mM Compound 1, incubation 24 min) it was 10.38 µM. In addition, the “Rate of enzyme reaction (μM of alpha-glucose from the p-nitrophenyl at 400 nm)” value in the experiment with α-glucosidase (0.10 mM Compound 1, incubation 45 min) is 4.64 µM; in the experiment on α-glucosidase (0.10 mM Compound 1, incubation 66 min), 1.62 µM; in the experiment with α-glucosidase (0.20 mM Compound 1, incubation 4 min), 20.89 µM; in the experiment with α-glucosidase (0.20 mM Compound 1, incubation 24 min) it was 18.27 µM; in the experiment with α-glucosidase (0.20 mM Compound 1, incubation 45 min), 13.11 µM; in the experiment on α-glucosidase (0.20 mM Compound 1, incubation 66 min) it was 10.13 µM. For the same molecule, the “Rate of enzyme reaction (μM of alpha-glucose from the p-nitrophenyl at 400 nm)” value was 21.15 µM in the experiment on α-glucosidase (0.40 mM Compound 1, incubation 4 min); 19.68 µM with α-glucosidase (0.40 mM Compound 1, incubation 24 min); 14.8 µM with α-glucosidase (0.40 mM Compound 1, incubation 45 min); 15.01 µM in the experiment on α-glucosidase (0.40 mM Compound 1, incubation 66 min). In addition, in the experiment with α-glucosidase (at all the concentrations and time intervals), the “Effect on α-glucosidase enzymatic activity as compared to the negative control” value is “enhanced the enzymatic activity”. The “IC50 ± SEM” value in experiment [1] (against α-glucosidase, pH 6.9, 37° C., 0.7 mM PNP-G) is “Enhancer”.
